These results are taken from EP1171102B1, “ANHYDROUS TABLET OF RANITIDINE HYDROCHLORIDE WITH DOUBLE-LAYER COATING AND ITS COMPOSITION” (priority 1999, dated 2000).

Counter-ions that a name gives are not always drawn.

Data set [1] can be described thus: Hygroscopicity and conversion of the crystalline forms on storage. It counts as physicochemical. The settings on record: product made by the method of the invention; chemico-physical analysis.
The conditions of data set [2]: cited from earlier work; for hygroscopicity: comparison of Form 1 and Form 2, hydrochloride.
The conditions of data set [3]: cited from earlier work.

On to `CNC(=C[N+](=O)[O-])NCCSCc1ccc(CN(C)C)o1.Cl` [anhydrous ranitidine hydrochloride], for which the “conversion into the allomorphous Form 2 during the storage” value in data set [1] is recorded as “not gradually converted during the storage into the allomorphous Form 2”.

For `CNC(=C[N+](=O)[O-])NCCSCc1ccc(CN(C)C)o1` [ranitidine hydrochloride Form 1, ranitidine hydrochloride], the hygroscopicity entry in data set [2] is recorded as “more hygroscopic than Form 2”. Further, the “conversion into Form 2” value in data set [2] (room temperature, in the presence of moisture) is recorded as “may be converted in small amounts in the presence of moisture into Form 2”.

Regarding `CNC(=C[N+](=O)[O-])NCCSCc1ccc(CN(C)C)o1` [ranitidine hydrochloride Form 2, ranitidine hydrochloride], the hygroscopicity result in data set [2] was “less hygroscopic than Form 1”.

With `CNC(=C[N+](=O)[O-])NCCSCc1ccc(CN(C)C)o1` [ranitidine hydrochloride], the water solubility in data set [3] (both allomorphous forms (Form 1 and Form 2)) was 900 mg in 1 ml of water. Moreover, in data set [3] (in water, at 25° C), the solubility entry is reported as “over 900 mg/ml”.
